Patent US8722578B2, “Spiroheterocyclic pyrrolidinedione herbicidal compositions” (Syngenta Participations AG, priority 2008, dated 2014)

Columns and labels:
[1] = system: Avena fatua (AVEFA); experiment: Example B pre-emergence herbicidal activity, glasshouse pot test; format: in vivo; conditions: 312 h, first table (headed Post-Emergence, taken as pre-emergence), rate 1000 g/ha, evaluated after 13 days, read-out: AVEFA activity (100=total damage to plant; 0=no damage to plant)
Protocol: (§1) Seeds of a variety of test species are sown in standard soil in pots. After cultivation for one day (pre-emergence) or after 8 days cultivation (post-emergence) under controlled conditions in a glasshouse (at 24/16° C., day/night; 14 hours light; 65% humidity), the plants are sprayed with an aqueous spray solution derived from the formulation of the technical active ingredient in acetone/water (50:50) solution containing 0.5% Tween 20 (polyoxyethelyene sorbitan monolaurate, CAS RN 9005-64-5). The test plants are then grown in a glasshouse under controlled conditions in a glasshouse (at 24/16° C., day/night; 14 hours light; 65% humidity) and watered twice daily. After 13 days for pre and post-emergence, the test is evaluated (100=total damage to plant; 0=no damage to plant). Test Plants: Setaria faberi (SETFA), Alopecurus myosuroides (ALOMY), Echinochloa crus-galli (ECHCG), Avena fatua (AVEFA)

[2] = system: Echinochloa crus-galli (ECHCG); experiment: as above; format: in vivo; conditions: 312 h, first table (headed Post-Emergence, taken as pre-emergence), rate 1000 g/ha, evaluated after 13 days, read-out: ECHCG activity (100=total damage to plant; 0=no damage to plant)
Protocol: as §1

[3] = system: Alopecurus myosuroides (ALOMY); experiment: as above; format: in vivo; conditions: 312 h, first table (headed Post-Emergence, taken as pre-emergence), rate 1000 g/ha, evaluated after 13 days, read-out: ALOMY activity (100=total damage to plant; 0=no damage to plant)
Protocol: as §1

[4] = system: Setaria faberi (SETFA); experiment: as above; format: in vivo; conditions: 312 h, first table (headed Post-Emergence, taken as pre-emergence), rate 1000 g/ha, evaluated after 13 days, read-out: SETFA activity (100=total damage to plant; 0=no damage to plant)
Protocol: as §1

[5] = system: Avena fatua (AVEFA); experiment: Example B post-emergence herbicidal activity, glasshouse pot test; format: in vivo; conditions: 312 h, evaluated after 13 days, read-out: AVEFA post-emergence activity (100=total damage to plant; 0=no damage to plant); for pest or weed control at 1000 g/ha: rate 1000 g/ha; for pest or weed control at 250 g/ha: rate 250 g/ha
Protocol: as §1

[6] = system: Echinochloa crus-galli (ECHCG); experiment: as above; format: in vivo; conditions: 312 h, evaluated after 13 days, read-out: ECHCG post-emergence activity (100=total damage to plant; 0=no damage to plant); for pest or weed control at 1000 g/ha: rate 1000 g/ha; for pest or weed control at 250 g/ha: rate 250 g/ha
Protocol: as §1

[7] = system: Alopecurus myosuroides (ALOMY); experiment: as above; format: in vivo; conditions: 312 h, evaluated after 13 days, read-out: ALOMY post-emergence activity (100=total damage to plant; 0=no damage to plant); for pest or weed control at 1000 g/ha: rate 1000 g/ha; for pest or weed control at 250 g/ha: rate 250 g/ha
Protocol: as §1

[8] = system: Setaria faberi (SETFA); experiment: as above; format: in vivo; conditions: 312 h, evaluated after 13 days, read-out: SETFA post-emergence activity (100=total damage to plant; 0=no damage to plant); for pest or weed control at 1000 g/ha: rate 1000 g/ha; for pest or weed control at 250 g/ha: rate 250 g/ha
Protocol: as §1

## CCOC(=O)OC1=C(c2c(C)cc(C)cc2C)C(=O)NC12CCN(OCC)CC2 [Compound P22]
other
  melting point: 174 to 175 °C
[1]
  pest or weed control at 1000 g/ha: 90%
[2]
  pest or weed control at 1000 g/ha: 100%
[3]
  pest or weed control at 1000 g/ha: 90%
[4]
  pest or weed control at 1000 g/ha: 90%
[5]
  pest or weed control at 1000 g/ha: 60%
[6]
  pest or weed control at 1000 g/ha: 100%
[7]
  pest or weed control at 1000 g/ha: 90%
[8]
  pest or weed control at 1000 g/ha: 70%

## CCON1CCC2(CC1)NC(=O)C(c1c(C)cc(C)cc1C)=C2OC(=O)C(C)(C)C [Compound P25, 2,2-dimethyl-propionic acid 8-ethoxy-2-oxo-3-(2,4,6-trimethyl-phenyl)-1,8-diaza-spiro[4.5]dec-3-en-4-yl ester]
[1]
  pest or weed control at 1000 g/ha: 0%
[2]
  pest or weed control at 1000 g/ha: 80%
[3]
  pest or weed control at 1000 g/ha: 60%
[4]
  pest or weed control at 1000 g/ha: 60%
[5]
  pest or weed control at 1000 g/ha: 0%
[6]
  pest or weed control at 1000 g/ha: 40%
[7]
  pest or weed control at 1000 g/ha: 50%
[8]
  pest or weed control at 1000 g/ha: 0%

## COc1ccc(COC2=C(c3ccc(Cl)cc3Cl)C(=O)NC23CCN(OC)CC3)cc1 [Compound P32]
other
  melting point: 111 to 113 °C
[5]
  pest or weed control at 1000 g/ha: 60%
[6]
  pest or weed control at 1000 g/ha: 80%
[7]
  pest or weed control at 1000 g/ha: 70%
[8]
  pest or weed control at 1000 g/ha: 90%

## C=CCOC(=O)OC1=C(c2cc(Br)ccc2C)C(=O)NC12CCN(OC)CC2 [Compound P45]
other
  melting point: 157 to 158 °C

## C=CCOC(=O)OC1=C(c2ccc(Cl)c(Cl)c2)C(=O)NC12CCN(OC)CC2 [Compound P46]
other
  melting point: 210 to 213 °C

## C=CCOC(=O)OC1=C(c2cc(OC)ccc2OC)C(=O)NC12CCN(OC)CC2 [Compound P47]
other
  melting point: 156 to 157 °C

## CCOC(=O)OC1=C(c2c(C)cc(C3CC3)cc2C)C(=O)NC12CCN(OC)CC2 [Compound P50]
other
  melting point: 215 to 216 °C

## CCOC(=O)OC1=C(c2cc(Br)c(C)cc2C)C(=O)NC12CCN(OC)CC2 [Compound P51]
other
  melting point: 206 to 209 °C

## CON1CCC2(CC1)NC(=O)C(c1cc(Br)c(C)cc1C)=C2OC(=O)C(C)(C)C [Compound P52]
other
  melting point: 225 to 226 °C

## CON1CCC2(CC1)NC(=O)C(c1cc(-c3ccc(Cl)cc3)c(C)cc1C)=C2OC(=O)C(C)(C)C [Compound P54]
other
  melting point: 229 to 230 °C

## CON1CCC2(CC1)NC(=O)C(c1cc(C3CC3)c(C)cc1C)=C2OC(=O)C(C)(C)C [Compound P56]
other
  melting point: 218 to 219 °C
[5]
  pest or weed control at 250 g/ha: 40%
[6]
  pest or weed control at 250 g/ha: 50%
[7]
  pest or weed control at 250 g/ha: 20%
[8]
  pest or weed control at 250 g/ha: 60%

## CON1CCC2(CC1)NC(=O)C(c1c(C)cc(C3CC3)cc1C)=C2OC(=O)C(C)(C)C [Compound P57]
other
  melting point: > 200 °C

## CCOC(=O)OC1=C(c2ccc(C3CC3)cc2Cl)C(=O)NC12CCN(OC)CC2 [Compound P58]
other
  melting point: 190 to 192 °C

## CON1CCC2(CC1)NC(=O)C(c1ccc(C3CC3)cc1Cl)=C2OC(=O)C(C)(C)C [Compound P59]
other
  melting point: 195 to 197 °C

## CCOC(=O)OC1=C(c2ccc(C3CC3)cc2C)C(=O)NC12CCN(OC)CC2 [Compound P60]
other
  melting point: 193 to 195 °C

## CON1CCC2(CC1)NC(=O)C(c1ccc(C3CC3)cc1C)=C2OC(=O)C(C)(C)C [Compound P61]
other
  melting point: 244 to 245 °C

## CON1CCC2(CC1)NC(=O)C(c1cc(Br)c(F)cc1C)=C2OC(=O)C(C)(C)C [Compound P63]
other
  melting point: 216 to 217 °C

## CCOC(=O)OC1=C(c2ccc(Br)cc2C)C(=O)NC12CCN(OC)CC2 [Compound P68]
other
  melting point: 201 to 203 °C
[5]
  pest or weed control at 250 g/ha: 60%
[6]
  pest or weed control at 250 g/ha: 90%
[7]
  pest or weed control at 250 g/ha: 70%
[8]
  pest or weed control at 250 g/ha: 90%

## CON1CCC2(CC1)NC(=O)C(c1c(C)cc(-c3ccc(Cl)cc3)cc1C)=C2OC(=O)C(C)(C)C [Compound P71]
other
  melting point: > 250 °C
[5]
  pest or weed control at 250 g/ha: 20%
[6]
  pest or weed control at 250 g/ha: 30%
[7]
  pest or weed control at 250 g/ha: 0%
[8]
  pest or weed control at 250 g/ha: 60%

## CON1CCC2(CC1)NC(=O)C(c1cc(-c3ccc(F)cc3)c(F)cc1C)=C2OC(=O)C(C)(C)C [Compound P72]
other
  melting point: 101 to 104 °C

## COCCOC1=C(c2cc(C)ccc2C)C(=O)NC12CCN(OC)CC2 [Compound P73]
other
  melting point: 161 to 164 °C

## CON1CCC2(CC1)NC(=O)C(c1c(C)cc(C)cc1C)C2=O (stereo not shown) [Compound T4]
[1]
  pest or weed control at 1000 g/ha: 100%
[2]
  pest or weed control at 1000 g/ha: 100%
[3]
  pest or weed control at 1000 g/ha: 90%
[4]
  pest or weed control at 1000 g/ha: 90%
[5]
  pest or weed control at 1000 g/ha: 90%
[6]
  pest or weed control at 1000 g/ha: 100%
[7]
  pest or weed control at 1000 g/ha: 100%
[8]
  pest or weed control at 1000 g/ha: 100%

## CCON1CCC2(CC1)NC(=O)C(c1c(C)cc(C)cc1C)C2=O (stereo not shown) [Compound T5]
[1]
  pest or weed control at 1000 g/ha: 90%
[2]
  pest or weed control at 1000 g/ha: 100%
[3]
  pest or weed control at 1000 g/ha: 100%
[4]
  pest or weed control at 1000 g/ha: 90%
[5]
  pest or weed control at 1000 g/ha: 60%
[6]
  pest or weed control at 1000 g/ha: 100%
[7]
  pest or weed control at 1000 g/ha: 90%
[8]
  pest or weed control at 1000 g/ha: 90%

## CCON1CCC2(CC1)NC(=O)C(c1ccc(Cl)cc1Cl)C2=O (stereo not shown) [Compound T6]
other
  melting point: 244 to 245 °C

## CCON1CCC2(CC1)NC(=O)C(c1cc(C)ccc1C)C2=O (stereo not shown) [Compound T7]
other
  melting point: 166 to 167 °C

## CON1CCC2(CC1)NC(=O)C(c1cc(Br)ccc1C)C2=O (stereo not shown) [Compound T8]
other
  melting point: 194 to 196 °C

## CON1CCC2(CC1)NC(=O)C(c1ccc(Cl)c(Cl)c1)C2=O (stereo not shown) [Compound T10]
other
  melting point: 239 to 242 °C

## COc1ccc(OC)c(C2C(=O)NC3(CCN(OC)CC3)C2=O)c1 (stereo not shown) [Compound T11]
other
  melting point: 194 to 196 °C

## CON1CCC2(CC1)NC(=O)C(c1c(C)cc(C3CC3)cc1C)C2=O (stereo not shown) [Compound T13]
other
  melting point: > 250 °C

## CON1CCC2(CC1)NC(=O)C(c1cc(-c3ccc(Cl)cc3)c(C)cc1C)C2=O (stereo not shown) [Compound T15]
other
  melting point: 168 to 169 °C
[5]
  pest or weed control at 250 g/ha: 60%
[6]
  pest or weed control at 250 g/ha: 90%
[7]
  pest or weed control at 250 g/ha: 60%
[8]
  pest or weed control at 250 g/ha: 90%

## CON1CCC2(CC1)NC(=O)C(c1cc(C3CC3)c(C)cc1C)C2=O (stereo not shown) [Compound T16, 3-(5-cyclopropyl-2,4-dimethyl-phenyl)-4-hydroxy-8-methoxy-1,8-diaza-spiro[4.5]dec-3-en-2-one]
[5]
  pest or weed control at 250 g/ha: 30%
[6]
  pest or weed control at 250 g/ha: 60%
[7]
  pest or weed control at 250 g/ha: 60%
[8]
  pest or weed control at 250 g/ha: 80%

## CON1CCC2(CC1)NC(=O)C(c1ccc(C3CC3)cc1Cl)C2=O (stereo not shown) [Compound T17]
other
  melting point: 206 to 207 °C

## CON1CCC2(CC1)NC(=O)C(c1ccc(C3CC3)cc1C)C2=O (stereo not shown) [Compound T18]
other
  melting point: 191 to 194 °C

## CON1CCC2(CC1)NC(=O)C(c1cc(Br)c(F)cc1C)=C2O [Compound T19, 3-(5-bromo-4-fluoro-2-methyl-phenyl)-4-hydroxy-8-methoxy-1,8-diaza-spiro[4.5]dec-3-en-2-one]
other
  melting point: 229 to 230 °C

## CON1CCC2(CC1)NC(=O)C(c1c(C)cc(C)c(Cl)c1C)C2=O (stereo not shown) [Compound T20]
other
  melting point: > 200 °C

## CON1CCC2(CC1)NC(=O)C(c1ccc(Br)cc1Cl)C2=O (stereo not shown) [Compound T21]
other
  melting point: 167 to 169 °C
[5]
  pest or weed control at 250 g/ha: 60%
[6]
  pest or weed control at 250 g/ha: 90%
[7]
  pest or weed control at 250 g/ha: 80%
[8]
  pest or weed control at 250 g/ha: 80%

## CON1CCC2(CC1)NC(=O)C(c1ccc(Br)cc1C)C2=O (stereo not shown) [Compound T22]
other
  melting point: 187 to 189 °C
[5]
  pest or weed control at 250 g/ha: 40%
[6]
  pest or weed control at 250 g/ha: 80%
[7]
  pest or weed control at 250 g/ha: 60%
[8]
  pest or weed control at 250 g/ha: 80%
